From US12257253B2, “Triamterene or nolatrexed for use in the treatment of phenylketonuria” (SOM INNOVATION BIOTECH, S.A., priority 2019, dated 2025)
Counter-ions that a name gives are not always drawn.

Legend:
Assay type in all cases: cell-based
Arg261Gln (R261Q) PAH [1] = biological target: T1, Arg261Gln (R261Q) PAH (Homo sapiens (Human), UniProt P00439, R261Q); experiment: Phenylalanine hydroxylase enzyme activity assay in transfected COS7 cells; conditions: compound 10 μM (sepiapterin 5 μM), 48 h
T1 sequence (P00439 whole entry R261Q): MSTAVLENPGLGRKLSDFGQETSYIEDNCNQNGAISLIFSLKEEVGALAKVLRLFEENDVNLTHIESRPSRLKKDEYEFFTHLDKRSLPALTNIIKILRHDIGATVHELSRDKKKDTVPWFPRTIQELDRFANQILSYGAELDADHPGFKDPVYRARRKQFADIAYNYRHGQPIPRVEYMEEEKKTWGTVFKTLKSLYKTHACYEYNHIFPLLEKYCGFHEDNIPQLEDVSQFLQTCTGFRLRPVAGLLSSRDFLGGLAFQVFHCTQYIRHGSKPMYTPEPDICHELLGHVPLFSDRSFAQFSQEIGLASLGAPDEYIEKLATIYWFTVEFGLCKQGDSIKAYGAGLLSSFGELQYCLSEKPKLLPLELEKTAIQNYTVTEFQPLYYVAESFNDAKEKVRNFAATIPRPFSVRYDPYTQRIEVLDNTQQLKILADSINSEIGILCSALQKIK
Description: (§1) 2. Phenylalanine Hydroxylase Enzyme Activity Assay
(§2) This assay was completed in cell culture to analyze the enzyme activity in the presence of compounds. In brief, wild-type or Arg261Gln PAH constructs were transiently expressed in COS7-cells in a 96 well format reflecting the PAH genotype (COS7 cell line has no endogenous PAH). Cells were treated with the compounds at a final concentration of 10 μM and the enzyme activity of PAH was analyzed 48 h after transfection. The effect of the compounds on the residual enzyme activity was determined in comparison to non-treated cells (NCC, only compound solvent final 0.1%). To normalize the cellular background signal non transfected cells (NT control) were treated with compound or solvent equally for 48 h. As a positive control we used sepiapterin, a stable precursor of BH4 (CAS 17094-01-8), stabilized in 100 mM DTT, in a final concentration of 5 μM.
(§3) PAH activities were assayed at 25° C. as previously described (Gersting, S. W., J. Biol. Chem., 2010, 285(40), 30686-30697) with modifications. The standard mixture contained 22.35 mM NaHepes, pH 7.0, […] catalase, 10 μM ferrous ammonium sulphate, and 1 mM L-Phe (L-phenylalanine) final. Assay mixture and cell culture enzyme were pre-incubated for 5 min and the reaction was initiated by the addition of 75 μM BH4 (stabilized in 100 mM dithiothreitol) final, run for 60 min and stopped by acetic acid. The amount of L-tyrosine production was measured and quantified by HPLC, assayed as triplicates.
(§4) The effect of compound on PAH enzyme activity was calculated from triplicates as follows: first the background of the NT cells were subtracted from the transfected cells (treated or NCC) and then the percentage of treated (compound) versus NCC was determined. Enzyme activity greater than 100% represents an increase in the enzyme activity with respect to NCC.

wild-type PAH [2] = biological target: T2, wild-type PAH (Homo sapiens (Human), UniProt P00439); experiment: as above; conditions: compound 10 μM (sepiapterin 5 μM), 48 h
T2 sequence (P00439 whole entry): as the sequence (P00439 whole entry R261Q) above, with Q261R counted along it
Description: as §1, §2, §3, §4

Arg261Gln (R261Q) PAH [3] = biological target: T1, Arg261Gln (R261Q) PAH; experiment: Phenylalanine hydroxylase residual protein amount (dot blot, COS-7 lysates); conditions: COS-7, 48 h, COS-7 cells, compound 10 μM (sepiapterin 5 μM), read-out: PAH protein level (immune blot signal) R261Q PAH Mean
Description: (§5) 3. Phenylalanine Hydroxylase Residual Protein Amount
(§6) The analysis of the residual PAH protein amount was based on the method described in Gersting S. W. et al., Human Molecular Genetics, 2010, 19(10), 2039-2049 with modifications.
(§7) Detection of the residual PAH protein amount was performed as a dot blot using the lysates obtained from the cell culture where transiently transfected COS-7 cells (with wild-type PAH or PAH variant) were exposed for 48 h to compounds. The experiment was carried out from the same samples as used for measuring enzyme activities.
(§8) 2 μl of the lysate were dropped onto the nitrocellulose membrane. The membrane was allowed to air dry at room temperature for 30 min followed by 40 min blocking in 5% milk in TBS-Tween (room temperature). The membrane was incubated with the mouse monoclonal primary antibody specific for PAH (Millipore, Cat. No. MAB5278, 1:1000 dilution in 5% milk in TBS-Tween) for overnight at 4° C. Next, the membrane was washed (3×10 min in TBS-Tween) and incubated with the secondary HRP-conjugated antibody (anti-mouse antibody; Santa Cruz Biotechnology, Inc., Cat. No. sc-2005; 1:1000 dilution in 5% milk in TBS-Tween) followed by thorough washing in TBS-Tween (3×10 min) and distilled water (1×10 min). Blots were visualized with Pierce™ ECL substrate (ThermoFisher Scientific, Cat No. 32106) and chemiluminescence was monitored with a DIANA III Imaging system or ChemiDoc™ MP Imaging System (BioRad). To analyze the compound effect on the PAH protein amount densitometry analysis was performed using ImageJ Software.
(§9) The effect of compound on PAH protein amount was calculated from triplicates. As for determination of the enzyme activity the background of the not transfected cells (NT) was subtracted from the transfected cells (NCC or compound treated). In the next step delta of the NCC versus compound treated cells was calculated. Residual protein amount greater than 100% represents an increase in the stability of the enzyme with respect to NCC.

wild-type PAH [4] = biological target: T2, wild-type PAH; experiment: as above; conditions: COS-7, 48 h, COS-7 cells, compound 10 μM (sepiapterin 5 μM), read-out: PAH protein level (immune blot signal) WT PAH Mean
Description: as §5, §6, §7, §8, §9

SMILES | PAH enzyme activity (L-Tyrosine formation) R261Q PAH Mean (Arg261Gln (R261Q) PAH [1]) [% NCC] | PAH enzyme activity (L-Tyrosine formation) WT PAH Mean (wild-type PAH [2]) [% NCC] | PAH protein level (% of control) at 10 µM (Arg261Gln (R261Q) PAH [3]) [%] | PAH protein level (% of control) at 10 µM (wild-type PAH [4]) [%]
Cc1ccc2[nH]c(N)nc(=O)c2c1Sc1ccncc1 [Nolatrexed 2HCl, 2-amino-6-methyl-5-(4-pyridylthio)-4(3H)-quinazolinone] | 531.60 | 284.15 | 256 | 108
C[C@H](O)C(=O)C1=Nc2c([nH]c(N)nc2=O)NC1 [Sepiapterin, S-(−)-2-amino-7,8-dihydro-6-(2-hydroxy-1-oxopropyl)-4(1H)-pteridinone] | 2089.79 | 297.14 | – | 106
CCN1CCCC1CNC(=O)c1cc(S(=O)(=O)CC)ccc1OC (stereo not drawn) [Sultopride HCl, N-[(1-ethyl-2-pyrrolidinyl)methyl]-5-(ethylsulfonyl)-o-anisamide] | 131.23 | 104.71 | – | –
